Measurements as given in ChEMBL document CHEMBL5209577, “Flow cytometry transport assay for SLC2A1 using HEK293 JumpIN TRex SLC2A1 WT-OE cells” (2022).

Target: T1, Solute carrier family 2, facilitated glucose transporter member 1 (Homo sapiens, UniProt P11166)
T1 sequence (P11166 whole entry): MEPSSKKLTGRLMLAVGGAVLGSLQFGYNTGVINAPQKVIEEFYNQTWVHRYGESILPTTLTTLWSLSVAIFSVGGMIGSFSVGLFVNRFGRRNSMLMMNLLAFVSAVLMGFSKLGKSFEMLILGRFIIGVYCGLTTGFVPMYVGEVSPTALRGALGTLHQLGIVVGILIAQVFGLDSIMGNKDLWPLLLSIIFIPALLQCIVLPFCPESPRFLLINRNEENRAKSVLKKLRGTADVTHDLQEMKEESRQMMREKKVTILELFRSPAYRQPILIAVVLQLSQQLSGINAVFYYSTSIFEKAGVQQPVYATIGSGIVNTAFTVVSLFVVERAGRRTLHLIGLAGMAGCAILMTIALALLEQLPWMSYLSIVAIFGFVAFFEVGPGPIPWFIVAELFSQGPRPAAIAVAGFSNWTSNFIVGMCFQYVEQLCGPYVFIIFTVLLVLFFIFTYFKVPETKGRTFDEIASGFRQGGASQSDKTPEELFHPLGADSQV
Test: Inhibition of the Glucose Transporter (GLUT1, SLC2A1) as assessed by a FRET based flow cytometry assay using a genetically-encoded biosensor for measuring free glucose (FLII12Pglu-700uDelta6) in HEK293 JumpIN TRex SLC2A1 WT-OE cells (PubChem AID: 1794830)
Type: functional, cell-based

Row | IC50 | EC50 | SMILES
1 | > 10 µM |  | O=C(Oc1cccc(F)c1OC(=O)c1cccc(O)c1)c1cccc(O)c1
2 |  | 527 µM | OC[C@H]1OC(O)[C@H](O)[C@@H](O)[C@@H]1O (some centres not stated) [DEXTROSE]
